“And” between values parts separate entries of the source, which are not always exact repeats. Identical values can stand only once.
Key:
[1] = tested on: U937 monocyte cell line differentiated into macrophages; details: % therapeutic compound taken up by macrophages after 45 minutes incubation, HPLC; N=2
Protocol: Cultures of U937 monocyte cell line were grown in RPMI-1640 supplemented with 10% fetal calf serum (FCS) until the cells reached 90% confluent monolayer. These cells were then treated with PMA and incubated in a 37° C. incubator under 5% carbon dioxide until the cells differentiated into macrophages. […] After incubation for 45 minutes the test solution supernatants were removed and saved for analysis, and the cells were then washed in PBS several times and lysed using two cycles of freeze-thawing. Therapeutic compound concentration present in the test solution, test solution supernatant, and cell lyste fractions was measured by HPLC. The percentage therapeutic compound taken up by the macrophages was calculated using the following formula: % therapeutic compound adsorbed=100×(compound mass recovered from cell lysate)/(compound mass delivered in test solution−compound mass recovered from test solution supernatant).

[2] = tested on: TBS-induced colitis murine model; test: Animal model for inflammatory bowel disease (TNBS-induced colitis); format: in vivo, C57BI/6 male mice; details: for Mean Colon Length / Mean Colon Weight / Mean Animal Weight: TNBS colitis; for Mean Colon Length / Mean Colon Weight / Endoscopy Colitis Severity Score Day 5: day 5; for Mean Animal Weight: oral dosing day -1 to day 5, Prednisolone 3 mg/kg, ibuprofen 20 mg/kg, BC1054-20 20 mg/kg, BC1054-30 30 mg/kg; for Endoscopy Colitis Severity Score Day 3 / Endoscopy Colitis Severity Score Day 5: video endoscopy, scale 0 to 4
Protocol: To assess the effectiveness of a pharmaceutical composition disclosed herein in treating an inflammatory bowel disease, experiments were conducted using a […] colitis murine model.
C57BI/6 male mice (6-7 weeks old) were divided into seven experimental groups containing at least ten animals each. On day 0, colitis was induced in mice from Groups B-G by intrarectal administration of 100 μL of TNBS (4 mg) in 50% ethanol under isoflurane anesthesia. Animals were dosed either once or three times a day from day −1 to day 5 with one of seven different treatments. Group A was a control in which each mouse was orally administered ethanol vehicle only. Group B was a control in which each mouse was orally administered 1% methylcellulose vehicle only. Group C was a control in which each mouse was orally administered solvent/adjuvant vehicle only (gavage of 10% ethanol and 90% linseed oil). Group D was a control in which each mouse was orally administered 3 mg/kg of Prednisolone. Group E was a control in which each mouse was orally administered 20 mg/kg of ibuprofen suspended in 1% methylcellulose (1 ml/kg) (no adjuvant). Group F was the experimental group in which each mouse was administered a pharmaceutical composition disclosed herein (BC1054-20) comprising 20 mg/kg of ibuprofen, 10% ethanol, and 90% linseed oil. Group G was the experimental group in which each mouse was administered a pharmaceutical composition disclosed herein (BC1054-30) comprising 30 mg/kg of ibuprofen, 10% ethanol, and 90% linseed oil. All animals were weighed daily and assessed visually for the presence of diarrhea and/or bloody stool. On day 3 and on day 5 colitis severity was assessed in all animals using video endoscopy, where images were taken and colitis severity scored visually by a blinded observer on a scale from 0 to 4 as follows: 0, normal; 1, loss of vascularity; 2, loss of vascularity and friability; 3, friability and erosions; and 4, ulcerations and bleeding. Following endoscopy on day 5, animals were sacrificed and the colon removed and its length and weight measured. Serum samples were obtained and the colon was fixed in 10% formalin. An additional piece of colon tissue was collected, weighed, and snap frozen in liquid nitrogen.

[3] = tested on: intestinal erosion murine model; test: Animal model for intestinal erosion (gastric irritation score); format: in vivo, Sprague-Dawley rats; details: for Mean Ulceration Score: 4 hours after treatment, score 0-4
Protocol: To assess whether a pharmaceutical composition disclosed herein reduced gastric irritation, experiments were conducted using an intestinal erosion murine model.
Sprague-Dawley rats were divided into seven experimental groups containing five animals each. After fasting overnight, the animals were challenged with one with one of seven different treatments. Group A was a control in which each mouse was orally administered 1% methylcellulose/0.5% polysorbate 80 vehicle only. Group B was a control in which each mouse was orally administered solvent/adjuvant vehicle only (gavage of 10% ethanol and 90% linseed oil). Group C was a control in which each mouse was orally administered 150 mg/kg aspirin. Group D was a control in which each mouse was orally administered 100 mg/kg ibuprofen suspended in 1% methylcellulose/0.5% polysorbate 80. Group E was the experimental group in which each mouse was administered a pharmaceutical composition disclosed herein (BC1054-100) comprising 100 mg/kg of ibuprofen, 10% ethanol, and 90% linseed oil. Group F was a control in which each mouse was orally administered 100 mg/kg ibuprofen suspended in 1% methylcellulose/0.5% polysorbate 80. Group G was the experimental group in which each mouse was administered a pharmaceutical composition disclosed herein (BC1054-200) comprising 200 mg/kg of ibuprofen, 10% ethanol, and 90% linseed oil. Animals were sacrificed 4 hours after treatment and the stomachs were examined for degree of hemorrhage and severity of mucosal erosive lesions. Gastric irritation was scored as follows: 0, no lesions; 1, hyperemia; 2, one or two slight lesions; 3, more than two slight lesions or severe lesions; and 4, very severe lesions. A score of 50% or more relative to Group C (aspirin-treated control group), which was set to 100%, was considered a positive score for gastric irritation.

[4] = tested on: α-collagen antibody induced arthritis (ACAIA) murine model; test: Alpha-collagen antibody induced arthritis (ACAIA) model for systemic arthritis; format: in vivo, Male BALB/c mice; details: for mean paw thickness compared to vehicle-treated Group 1M (significance): ANOVA with Tukey post hoc
Protocol: To assess the effectiveness of a pharmaceutical composition disclosed herein in treating arthritis, experiments were conducted using an α-collagen antibody induced arthritis (ACAIA) murine model that mimics a systemic arthritis like rheumatoid arthritis.
Male BALB/c mice were divided into eight groups, each containing 10 animals. To induce arthritic symptoms, mice from all eight groups were intravenously injected with 200 μL of an antibody solution comprising a 2 mg cocktail of four α-collagen II monoclonal antibodies (ARTHRITOMAB™, MD Biosciences) on study day 0 (study commencement), followed by a 200 μL intraperitoneal injection of a solution containing 100 μg lipopolysaccharide (LPS) on study day 3. Each group was subjected daily to a control or test treatment administered from day 0-11 as follows: Group 1 mice (1M) were treated orally with a vehicle preparation containing 1% methyl cellulose administered thrice daily; Group 2 mice (2M) were treated intraperitoneally with a positive control preparation containing 10 mg/kg etanercept (ENBREL®, Wyeth) administered once daily; Group 3 mice (3M) were treated orally with a 20 mg/kg test liquid formulation comprising ibuprofen and rapeseed oil (BC1054 LF-RO) administered once daily; Group 4 mice (4M) were treated orally with a 20 mg/kg test liquid formulation comprising ibuprofen and rapeseed oil (BC1054 LF-RO) administered thrice daily; Group 5 mice (5M) were treated orally with a 20 mg/kg test liquid formulation comprising ibuprofen and a glyceryl monolinoleate (MAISINE™ 35-1, Gattefosse) (BC1054 LF-MA) administered thrice daily; Group 6 mice (6M) were treated orally with a 20 mg/kg test solid formulation comprising ibuprofen and theobroma oil (BC1054 LF-TO) administered thrice daily; Group 7 mice (7M) were treated orally with a control preparation 1 comprising 20 mg/kg of ibuprofen administered thrice daily; and Group 8 mice (8M) were treated orally with a 20 mg/kg test solid formulation comprising ibuprofen and a waxy solid having a melting point of between 37° C. to 41° C. and comprising a mixture of saturated C10-C18 triglycerides ([…]® 39/01, Gattefosse) (BC1054 LF-GE) administered thrice daily (Table 6). The dose administered was calculated based on the assumption that each animal weighed, on average, 20 g. A fixed volume of 100 μL was administered to each mouse, except those animals receiving the positive control (2M) were administered 200 μL.
Arthritic development and clinical examinations were monitored in all mice on study day 0 shortly before arthritis induction and subsequently on study days 3-7, 9, 10 and 12 (study termination). To access arthritic development, both an arthritis score and paw thickness (plethysmography) measurements were obtained. The arthritis score was based on visual assessment of arthritis reactions using a 0-4 scale in ascending order of severity with Grade 0 indicating no arthritis reaction; Grade 1 indicating mild, but definite redness and swelling of the ankle/wrist or apparent redness and swelling limited to individual digits, regardless of the number of affected digits; Grade 2 indicating moderate to severe redness and swelling of the ankle/wrist; Grade 3 indicating redness and swelling of the entire paw including digits; and Grade 4 indicating maximally inflamed limb with involvement of multiple joints. Paw thickness was measured for both hind paws just above the foot pad and below the calcaneum using a dial caliper (Kroeplin, Munich, Germany). Mean values for paw thickness measurements were determined, and where appropriate, analysis of the data by ANOVA with Tukey post hoc analysis was applied to determine significance of treatment effects.
Clinical examinations included changes in body weight, condition of skin, fur, eyes, mucous membranes, occurrence of secretions and excretions (e.g. diarrhea), and autonomic activity (e.g. lacrimation, salivation, piloerection, pupil size, unusual respiratory pattern). […]

[5] = statistical comparison, doses as E9
[6] = day 6, 20 mg/kg PO thrice daily (Groups 4M-8M)

CC(C)Cc1ccc(C(C)C(=O)O)cc1 (stereo not drawn) [Formulation C, ibuprofen free acid]
Mean Mass Compound Uptake [1]: 0.4%

C[C@]12C=CC(=O)C=C1CC[C@@H]1[C@@H]2[C@@H](O)C[C@@]2(C)[C@H]1CC[C@]2(O)C(=O)CO [Prednisolone]
Mean Colon Length ([2]; doses as E9): 8.4 cm
Mean Colon Weight ([2]; doses as E9): 267 mg
Mean Animal Weight [2]: 23.33 g
mean colitis scores compared to Group B (TNBS-treated control group) [2, 5]: statistically significant reduced mean colitis scores on both day 3 and day 5
mean colon length compared to Group B (TNBS-treated control group) [2, 5]: statistically significant increase in mean colon length
Endoscopy Colitis Severity Score Day 3 ([2]; doses as E9): 2.3^7
Endoscopy Colitis Severity Score Day 5 ([2]; doses as E9): 1.7^8

CC(=O)Oc1ccccc1C(=O)O [aspirin]
% Aspirin Erosion ([3]; Group C, 150 mg/kg aspirin, set to 100%): (100) %
Mean Ulceration Score ([3]; Group C, 150 mg/kg oral): 4

CC(C)Cc1ccc(C(C)C(=O)O)cc1 (stereo not drawn) [ibuprofen]
mean paw thickness compared to vehicle-treated Group 1M (significance) ([4]; 20 mg/kg PO thrice daily (Groups 4M-8M)): No significant differences were observed
Mean Rear Paw Thickness ([4]; day 0, 20 mg/kg PO thrice daily (Groups 4M-8M), 20 mg/kg): 1.71±0.02 mm and 1.71 mm
Mean Rear Paw Thickness ([4]; day 3, 20 mg/kg PO thrice daily (Groups 4M-8M)): 1.72 mm
Mean Rear Paw Thickness ([4]; day 4, 20 mg/kg PO thrice daily (Groups 4M-8M)): 1.64 mm
Mean Rear Paw Thickness ([4]; day 5, 20 mg/kg PO thrice daily (Groups 4M-8M)): 1.71 mm
Arthritis incidence [4, 6]: 8/10
Mean Rear Paw Thickness [4, 6]: 1.90 mm
Mean Rear Paw Thickness ([4]; day 7, 20 mg/kg PO thrice daily (Groups 4M-8M), 20 mg/kg): 2.15±0.10 mm and 2.15 mm
Mean Rear Paw Thickness ([4]; day 9, 20 mg/kg PO thrice daily (Groups 4M-8M)): 2.08 mm
Mean Rear Paw Thickness ([4]; day 10, 20 mg/kg PO thrice daily (Groups 4M-8M)): 2.07 mm
Mean Rear Paw Thickness ([4]; day 12, 20 mg/kg PO thrice daily (Groups 4M-8M), 20 mg/kg): 2.02±0.08 mm and 2.02 mm
% Aspirin Erosion ([3]; 100 mg/kg ibuprofen (Groups D, E), relative to Group C, 50% or more = positive score for gastric irritation): 75% and 75^1%
Mean Ulceration Score ([3]; 100 mg/kg ibuprofen oral (Groups D, E)): 3
% Aspirin Erosion ([3]; 200 mg/kg ibuprofen (Groups F, G), relative to Group C, 50% or more = positive score for gastric irritation): 95% and 95^1%
Mean Ulceration Score ([3]; 200 mg/kg ibuprofen oral (Groups F, G)): 3.8
Mean Colon Length ([2]; doses as E9): 7.9 cm
Mean Colon Weight ([2]; doses as E9): 267 mg
Mean Animal Weight [2]: 23.82 g
Endoscopy Colitis Severity Score Day 3 ([2]; doses as E9): 2.7
Endoscopy Colitis Severity Score Day 5 ([2]; doses as E9): 2.2

Etanercept
mean paw thickness compared to vehicle-treated Group 1M (significance) ([4]; once daily dosing (Groups 2M, 3M)): significantly decreased paw volume compared to the positive control mice on days 9, 10 and 12
Mean Rear Paw Thickness ([4]; day 0, once daily (Etanercept 10 mg/kg IP, Group 2M; BC1054 LF-RO 20 mg/kg PO, Group 3M)): 1.70±0.02 mm and 1.70 mm
Mean Rear Paw Thickness ([4]; day 3, once daily (Etanercept 10 mg/kg IP, Group 2M; BC1054 LF-RO 20 mg/kg PO, Group 3M)): 1.73 mm
Mean Rear Paw Thickness ([4]; day 4, once daily (Etanercept 10 mg/kg IP, Group 2M; BC1054 LF-RO 20 mg/kg PO, Group 3M)): 1.64 mm
Mean Rear Paw Thickness ([4]; day 5, once daily (Etanercept 10 mg/kg IP, Group 2M; BC1054 LF-RO 20 mg/kg PO, Group 3M)): 1.63 mm
Mean Rear Paw Thickness ([4]; day 6, once daily (Etanercept 10 mg/kg IP, Group 2M; BC1054 LF-RO 20 mg/kg PO, Group 3M)): 1.96±0.05 mm and 1.96 mm
Arthritis incidence ([4]; day 6, once daily dosing (Groups 2M, 3M)): 9/10
Mean Rear Paw Thickness ([4]; day 7, once daily (Etanercept 10 mg/kg IP, Group 2M; BC1054 LF-RO 20 mg/kg PO, Group 3M)): 1.95 mm
Mean Rear Paw Thickness ([4]; day 9, once daily (Etanercept 10 mg/kg IP, Group 2M; BC1054 LF-RO 20 mg/kg PO, Group 3M)): 1.88 mm
Mean Rear Paw Thickness ([4]; day 10, once daily (Etanercept 10 mg/kg IP, Group 2M; BC1054 LF-RO 20 mg/kg PO, Group 3M)): 1.80 mm
Mean Rear Paw Thickness ([4]; day 12, once daily (Etanercept 10 mg/kg IP, Group 2M; BC1054 LF-RO 20 mg/kg PO, Group 3M)): 1.77±0.02 mm and 1.77 mm
Arthritis incidence ([4]; day 12, once daily dosing (Groups 2M, 3M)): 1/10

Source: patent US12685709B2, “Solid solution compositions and use in chronic inflammation” (Infirst Healthcare Limited, priority 2011, dated 2026)
